Assays:
[1] = Lipophilicity parameter logPow by RP-HPLC run time method (OECD guideline); format: physicochemical; conditions: C18 stationary phase, methanol/buffer pH 7.4, isocratic
Method: The lipophilicity parameters logPow (Table I) were determined as specified by OECD directive test guidelines using the RP-HPLC run time method.
To this end, a logk′/logPow correlation curve based on ten reference substances was plotted and validated with the aid of the lipophilicity parameters of eight comparative substances, which had been established by the extraction method.
A commercially available reversed-phase C18 stationary phase was used as stationary phase. Chromatographic separation was carried out with methanol and a buffer solution as mobile phase at pH 7.4 under isocratic conditions.
The retention times of the standards tR were converted in accordance with equation Φ into the capacity factors k′, where t0, as […] of the solvent unretarded on the reversed-phase C18 stationary phase, represents the dead time of the chromatographic system:
The linear correlation of the logk′ values with the logPow values of the standards published in the appendix to the Directive 92/69/EEC yields the correlation curve through linear regression.
The lipophilicity parameters logPow of the analytes were interpolated from the correlation curve of the standards after calculation of the logarithmic capacity logk′.
The validation of the RP-HPLC analytical method described, and of the standards used, is carried out with the aid of eight comparison active compounds, the distribution behavior of which was determined with the aid of the extraction method.

| SMILES | melting point [°C] | logPow [1] |
| --- | --- | --- |
| C[C@H](Nc1nc(-n2ccnc2)nc(Cl)c1-c1c(F)cc(F)cc1F)C(F)(F)F [I-3, (S)-6-Chloro-4-(2,2,2-trifluoro-1-methylethyl)amino-5-(2,4,6-trifluorophenyl)-2-(1-imidazolyl)pyrimidine] | 172 to 173 |  |
| CCN(CC)c1nc(-c2ncccn2)nc(Cl)c1-c1c(F)cccc1Cl [I-9] |  | logPow 3.86 |
| C[C@H](Nc1nc(-n2cncn2)nc(Cl)c1-c1c(F)cc(F)cc1F)C(F)(F)F [I-4, (S)-6-Chloro-4-(2,2,2-trifluoro-1-methylethyl)amino-5-(2,4,6-trifluorophenyl)-2-(1,2,4-triazol-1-yl)pyrimidine] | 176 to 177 |  |
| CC(C)(C)CNc1nc(-c2cnccn2)nc(Cl)c1-c1c(F)cc(F)cc1F [I-22] |  | logPow 4.72 |
| CC(C)Nc1nc(-c2ncccn2)nc(Cl)c1-c1c(F)cc(F)cc1F [I-11] |  | logPow 3.15 |
| CC(C)N(C)c1nc(-c2cnccn2)nc(Cl)c1-c1c(F)cc(F)cc1F [I-21] |  | logPow 4.48 |
| C[C@H](Nc1nc(-n2cccn2)nc(Cl)c1-c1c(F)cc(F)cc1F)C(F)(F)F [I-2, (S)-6-Chloro-4-(2,2,2-trifluoro-1-methylethyl)amino-5-(2,4,6-trifluorophenyl)-2-(1-pyrazolyl)pyrimidine] | 209 |  |
| CCN(CC)c1nc(-c2cnccn2)nc(Cl)c1-c1c(F)cc(F)cc1F [I-20] |  | logPow 4.41 |
| CC(C)Nc1nc(-c2cnccn2)nc(Cl)c1-c1c(F)cc(F)cc1F [I-18] |  | logPow 4.7 |
| CCN(CC)c1nc(-c2cnccn2)nc(Cl)c1-c1c(F)cccc1Cl [I-14] |  | logPow 4.49 |
